Experimental data: patent US20250114326A1, “POLAR MARINE-DERIVED MACROCYCLIC LACTAM COMPOUND, AND PREPARATION METHOD THEREFOR AND USE THEREOF” (RENJI HOSPITAL, SCHOOL OF MEDICINE, SHANGHAI JIAO TONG …, priority 2021, published 2025)
Like-named read-outs stand apart in the source and are kept apart here.

Test system: inflammatory cytokine IL-6
Test: Inhibition of cytokine IL-6 in PMA-differentiated, LPS-treated THP-1 cells (Cytometric Bead Array, flow cytometry)
Format: cell-based, human
Conditions: PMA 160 nM 36 h, compound 2 h then LPS 24 h, IL-6 in culture solution by CBA, read-out: Half maximal inhibitory concentration (IC50) value on inflammatory cytokine IL-6
Protocol: Culture of THP-1 cells and treatment of THP-1 cells with test compounds in combination with LPS
THP-1 cells (from the Cell Bank of the Chinese Academy of Sciences) were cultured in RPMI-1640 medium containing 10% FBS in a 5% CO2 incubator at 37° C. 100 μL of a cell suspension in a complete culture medium containing antibiotics (100 μg/mL streptomycin and 100 U/mL penicillin) and PMA (final concentration: 160 nM) was added to each well in a 96-well plate (about 5×10^4 cells/well). After 36 h of treatment, the cells achieved adherent growth.
The PMA-containing medium was discarded and then the cells were washed with 1×PBS solution. Serum-free RPMI-1640 (2 mL) was added and the cells were treated for 12 h. The active compounds to be tested were diluted into five concentration gradients and added to each well for a 2-hour treatment. The culture solutions containing the compounds were retained and the cells were treated with a serum-free medium ([…]) containing LPS (1 mg/mL) for 24 h.
The content assay for cytokine IL-6 in the culture solution was performed according to the Human Inflammation Cytometric Bead Array (CBA) method in the manufacturer's instructions. After the above-mentioned cytokine levels were determined on the FACSCalibur flow cytometer, the FCAP Array software was used to analyze the results.

Compound: CC[C@H](C)C[C@@]1(O)C(=O)NC[C@H](O)[C@@H](OC)C(=O)O[C@@H]2CO[C@]3(C)C=C(C)[C@@H](/C(C)=C/[C@@]4(C)O[C@]1(O)C[C@H]4O)[C@@H]3C2 [Compound 4, Somalactam D]
- IC50 (Homo sapiens): 9.12 ± 0.15 µM

Compound: CC[C@H](C)C[C@@]1(O)C(=O)NC[C@H](O)[C@@H](OC)C(=O)OC[C@@H](O)C/C=C(\C)[C@H]2C(C)=C[C@]3(C)O[C@@H]4C[C@@]1(O)O[C@]4(C)[C@H]23 [Compound 2, Somalactam B]
- IC50 (Homo sapiens): 11.1 ± 0.13 µM

Compound: Tocilizumab [reference compound]
- IC50 (listed as control drug): 6.02 ± 0.12 µM
- IC50: 9.22 ± 0.12 µM

Compound: CC[C@H](C)C[C@]1(O)C(=O)C[C@@H](O)[C@@]2(C)C=C(C)[C@H](O2)/C(C)=C/C(C)=C/C[C@@H](CO)OC(=O)[C@H](OC)[C@@H](O)CNC1=O [Compound 1, Somalactam A]
- IC50 (Homo sapiens): 10.54 ± 0.06 µM

Compound: CC[C@H](C)C[C@@]1(O)C(=O)NC[C@H](O)[C@@H](OC)C(=O)O[C@H](CO)C/C=C(\C)[C@@H]2C(C)=C[C@@]3(C)O[C@@H]4C[C@@]1(O)O[C@]4(C)[C@@H]23 [Compound 3, Somalactam C]
- IC50 (Homo sapiens): 5.76 ± 1.18 µM
